Experimental data reported in publication PMC9117128, “Phage anti-CBASS and anti-Pycsar nucleases subvert bacterial immunity” (Nature, 2022).

Experiments:
YhfI = molecular target: T1, YhfI (Bacillus subtilis, UniProt O07607); test: HPLC cleavage assay; format: biochemical; conditions: Mg2+, Mn2+, pH 7.5, 37 °C
T1 construct: recombinant, homodimer

PycTIR = molecular target: T2, PycTIR (Burkholderia cepacia, UniProt A0A0J5WTU0); test: fluorescent NADase activation assay; format: biochemical; conditions: 500 µM ε-NAD, pH 7.5, room temperature
T2 sequence (A0A0J5WTU0 1-303): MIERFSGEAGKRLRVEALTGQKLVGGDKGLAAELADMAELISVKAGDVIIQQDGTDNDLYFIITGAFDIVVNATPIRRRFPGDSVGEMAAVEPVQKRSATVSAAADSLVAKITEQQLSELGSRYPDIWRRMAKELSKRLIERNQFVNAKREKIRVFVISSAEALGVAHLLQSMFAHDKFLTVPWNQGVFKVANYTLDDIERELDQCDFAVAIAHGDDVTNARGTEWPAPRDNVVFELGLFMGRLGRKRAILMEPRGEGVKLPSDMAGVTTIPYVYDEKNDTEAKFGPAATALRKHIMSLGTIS

[1] = molecular target: the molecule itself; test: crystal structure; hanging-drop crystals grown at 18 °C from purified protein (10 mg/ml, 20 mM HEPES-KOH pH 7.5, 80 mM KCl, 1 mM TCEP); homodimer seen in the crystal structures

T1 sequence (O07607 whole entry): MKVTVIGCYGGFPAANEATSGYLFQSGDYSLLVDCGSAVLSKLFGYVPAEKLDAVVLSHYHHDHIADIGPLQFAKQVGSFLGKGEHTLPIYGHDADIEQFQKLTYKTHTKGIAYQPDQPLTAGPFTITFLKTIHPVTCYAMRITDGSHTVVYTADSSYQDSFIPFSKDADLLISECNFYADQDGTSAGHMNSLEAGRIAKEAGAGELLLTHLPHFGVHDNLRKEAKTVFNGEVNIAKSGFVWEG

## Nc1nc2c(ncn2[C@@H]2O[C@@H]3COP(=O)(O)O[C@H]3[C@H]2O)c(=O)[nH]1 [cGMP]
YhfI
  HPLC cleavage assay: exhibited a strong preference for cAMP/cGMP over cCMP/cUMP cleavage

## O=c1ccn([C@@H]2O[C@@H]3COP(=O)(O)O[C@H]3[C@H]2O)c(=O)[nH]1 [cUMP]
PycTIR; activator
  fluorescent NADase activation assay: cUMP-dependent activation of the Pycsar NADase effector PycTIR

## NC(=O)c1ccc[n+]([C@@H]2O[C@H](COP(=O)(O)OP(=O)(O)OC[C@H]3O[C@@H](n4cnc5c4ncn4ccnc54)[C@H](O)[C@@H]3O)[C@@H](O)[C@H]2O)c1 [ε-NAD]
PycTIR; cUMP as activator
  fluorescent NADase activation assay: Release of fluorescent substrate from an NAD^+ analogue incubated with the Pycsar effector PycTIR

B1: Paenibacillus J14 Apyc1 (enzyme)
chain: ALRLQMLGTGGAFAKKYFNNNALLYAGDFTLLIDCGITAPLALHTIGKSVEEIDAVLITHIHGDHVGGLEELAFRRKFGSGRKPILYIAENLVEPLWENTLKGGLSQDGVIHSLNDVFDVRLLKESEPAQLAPELKVELIRTPHIPGKPSYSLYINDEIFYSADMTFEPELLMRLVRERGCRRIFHEVQLTGKGEVHTTLQELLSLPTEIQSQILLKHYSDDMESFRGATGNMDFLRQHEVYTL
modifications: selenomethionine-labelled
notes: Apyc1 homologue (MBL-fold class II phosphodiesterase) of Paenibacillus J14, GenBank WP_028539944.1; Crystallised with a hydrolysis-resistant phosphorothioate analogue of cAMP; also called P. J14 Apyc1; Paenibacillus Apyc1; source: E. coli BL21(DE3) RIL, selenomethionine-labelled, purified (Ni-NTA, Superdex 75 SEC); not shown: 6×His-SUMO2 or 6×His-MBP-SUMO2, N-terminal, cleaved
[1]
  stoichiometry N: 2

B2: Paenibacillus xerothermodurans Apyc1 (enzyme)
chain: SLQIQMIGTGSAFAKKFYNNNALVKCNGFQLLIDCGVTAPRALHELGVPITGIDGILITHIHADHVGGIEEFAFRLKYKYGMTIKLFVPAALVNPLWDHSLRGGLENKAEGLEQLADYFDVVALEEAVVHEIHPGLTVELVRSQHIAGKASYSLLLNNLLFYSSDARFNYAQLVELSTSGRCKYILHDCQLAEPAAVHATLNELLTLPEAVQEMIMLMHYDDEMEQFIGKSGKMSFMQQHKTYSFTEAT
notes: Apyc1 homologue (MBL-fold class II phosphodiesterase) of Paenibacillus xerothermodurans; also called P. xerothermodurans Apyc1; Paenibacillus Apyc1; source: E. coli BL21(DE3) RIL, purified (Ni-NTA, Superdex 75 SEC); not shown: 6×His-SUMO2 or 6×His-MBP-SUMO2, N-terminal, cleaved
[1]
  stoichiometry N: 2

B3: Apyc1 from the phage Bsp38 (enzyme)
chain: MLHTTQIRMVGTGSAFSKKFYNNSALVTFTNGYNLLIDCGHSVPKGLHDADIPLESIDGILITHTHADHIGGLEEVALYNKFVLGGRKIDLLVPNTLVESLWENSLKGGLRYSDTYDDLSLSDYFTVRSLKTFTSGAARTQLEENIAIKLYPTFHVSHMASYAVGLEDRGEDKVFYSSDTIFDEYLIDYALTYSWVFHDCQFFTGGVHASLDELLNYIPEEDQDRVFLMHYGDNMEDFFTKTGRMRFALQGRTYIL
notes: Anti-Pycsar protein Apyc1 (MBL-fold class II phosphodiesterase) of phage Bsp38; The SUMO2 tag was cleaved with SENP2; also called Bsp38 Apyc1; source: E. coli BL21(DE3) RIL, purified (Ni-NTA, Superdex 75 SEC); not shown: 6×His-SUMO2 or 6×His-MBP-SUMO2, N-terminal, cleaved
[1]
  stoichiometry N: 2
